From patent US12152077B1, “Immunotherapy targeting tumor neoantigenic peptides” (INSTITUT CURIE, priority 2019, dated 2024) come the findings set out here.

Assay [1] deals with CD8+ T cells from HLA-A2+ healthy donors. In words: Priming of naive CTLs by peptide-loaded autologous moDCs (immunogenicity, tetramer staining). In kind it is cell-based, human. The settings on record: for specific CD8+ T expansions (immunogenicity): total of 6 donors, FIG. 11A; for expansion of specific CD8+ T cells (tetramer positive): one donor, versus co-culture without peptides. The procedure:
Priming of naïve CTLs. PBMCs were obtained by Ficoll gradient separation from HLA-A2+ healthy blood donors. CD14+, CD4+ and CD8+ cells were purified by positive selection using magnetic beads (Miltenyi Biotec). While CD4+ and CD8+ T cells were cryopreserved until the experiment day, CD14+ fraction was cultured in the presence of IL-4 (50 ng/mL) and GM-CSF (10 ng/ml) at 10^6 cells/mL during 5 days to obtain moDCs. After this period of time, the moDCs were maturated with LPS and incubated with synthetic ER-derived peptides at a final concentration of 1 μg/mL for 2 hours. Finally, peptide-loaded moDCs were co-cultured with autologous CD4+ and CD8+ T cells in culture medium supplemented with IL-2 (10 U/ml) and IL-7 (100 ng/ml). The ER-derived peptide stimulation of specific CD8+ CTL populations was assessed by MHC-I tetramer staining by flow cytometry using a combination of two-color tetramer for each peptide.
(§1) Tetramer Staining. Cells were resuspended in PBS, stained with Live/Dead Aqua-405 nm (ThermoFisher) during 20 minutes at 4° C. and washed once. After that, cells were resuspended in PBS-1% BSA containing the mix of SA-coupled tetramers and incubated in the dark at room temperature during 20 minutes. Without further washing, surface antibodies were added in PBS-1% BSA and cells were incubated 20 minutes in the dark at 4° C. Surface antibodies were a combination of anti-CD3-BV650+ anti-CD8-PECy7 in combination with anti-CCR7-AF700+ anti-CD45RA-BUV395 when required. Finally, cells were washed twice and resuspended in FACS buffer for flow cytometry analysis.
The following step after binding validation to HLA-A2 allele, was to test the immunogenicity of predicted peptides. Priming assays were thus performed to test the ability of identified peptides to expand specific cytotoxic T cells. PBMCs from HLA-A2+ healthy donors were used to generate monocyte derived-DCs (moDCs). After loading the moDCs with a mix of synthetic peptides, autologous co-culture was performed with CD4+ and CD8+ T cells. Finally, the expansion of specific CD8+ T cells was analysed by flow cytometry using two-colours tetramer staining. As a control of specific expansion, the co-culture was performed in the absence of peptides. […] The same experiment was performed in order to evaluate the response in additional 5 donors.

The subject of assay [2] is TILs derived from LUAD patients. In words: Tetramer staining of expanded tumor infiltrating lymphocytes (TILs). In kind it is cell-based, human. The settings on record: TILs expanded with peptide mix + IL-2 or IL-2 only; HLA-A2+ LUAD patients. The procedure:
as §1
Tumor infiltrating lymphocytes (TILs) cultures. Tumor tissue was cut into small pieces (1-3 mm3 size, 6-12 pieces maximum). Each tumor fragment was transferred into individual wells from 24-well plates and cultured in a final volume of 2 ml RPMI 10% Human Serum+IL-2 6000 IU/ml. Cells were feed/split as necessary during 15-20 days and cryopreserve or analyzed for tetramer staining.
In a first set of experiments tumor infiltrating lymphocytes (TILs) expanded with a mix of TE-derived peptides and Il-2, or only with Il-2, were analyzed by tetramer staining. As is shown in FIGS. 13A and B, we found CD8+ T-cells cells recognizing fusion-derived peptides in TILs derived from LUAD patients.

“Also recorded” adds a separate entry of the source.

For the sequence GLPSHVELA, the “specific CD8+ T expansions (immunogenicity)” value in assay [1] is “specific CD8+ T expansions; also recorded: immunogenic”. Also, in assay [2], the “CD8+ T cells recognizing peptide in TILs (tetramer positive)” value is “found TILs recognizing”.

Consider RQAPGFHHA, for which the “specific CD8+ T expansions (immunogenicity)” value in assay [1] is “specific CD8+ T expansions”.

As for VLLTNTIWL, the “specific CD8+ T expansions (immunogenicity)” value in assay [1] is on record as “specific CD8+ T expansions”.

With AMDGKELSL, the “specific CD8+ T expansions (immunogenicity)” value in assay [1] is reported as “specific CD8+ T expansions”.

On to YLWTTFFPL, for which, in assay [1], the “expansion of specific CD8+ T cells (tetramer positive)” value (shortened to “expansion of specific CD8+ T cells”) is reported as “expand specific CD8+ T cells” and the “specific CD8+ T expansions (immunogenicity)” value is given as “specific CD8+ T expansions”.

Regarding LLDRFGYHV, the “specific CD8+ T expansions (immunogenicity)” value in assay [1] is on record as “specific CD8+ T expansions”.

With GLLNISHTA, in assay [1], the “specific CD8+ T expansions (immunogenicity)” value is recorded as “specific CD8+ T expansions”.

Turning to MLMKTVWQA, the “specific CD8+ T expansions (immunogenicity)” value in assay [1] is on record as “specific CD8+ T expansions”.

Take FLIVAEILI: the “expansion of specific CD8+ T cells” value in assay [1] was “expand specific CD8+ T cells”.

For RLADHLSFC, in assay [1], the “expansion of specific CD8+ T cells” value was “expand specific CD8+ T cells” and the “specific CD8+ T expansions (immunogenicity)” value is “specific CD8+ T expansions; also recorded: immunogenic”.

In the case of ILHSLVTGV, in assay [1], the “specific CD8+ T expansions (immunogenicity)” value is given as “specific CD8+ T expansions”.

For ILTASITSI, the “specific CD8+ T expansions (immunogenicity)” value in assay [1] is on record as “specific CD8+ T expansions”.

Consider MLVTWELAL, for which the “specific CD8+ T expansions (immunogenicity)” value in assay [1] is listed as “specific CD8+ T expansions”.

With ILSGYGPCV, the “specific CD8+ T expansions (immunogenicity)” value in assay [1] was “specific CD8+ T expansions”.

In the case of AILPKANTV, in assay [1], the “expansion of specific CD8+ T cells” value is reported as “expand specific CD8+ T cells” and the “specific CD8+ T expansions (immunogenicity)” value is on record as “specific CD8+ T expansions”.

Turning to LLHLESFLV, the “specific CD8+ T expansions (immunogenicity)” value in assay [1] is “specific CD8+ T expansions”.

SLMQSGSPV: the “specific CD8+ T expansions (immunogenicity)” value in assay [1] is “specific CD8+ T expansions”.

FLGTRVTRV: the “specific CD8+ T expansions (immunogenicity)” value in assay [1] is on record as “specific CD8+ T expansions”.

LLTSWHLYL: the “specific CD8+ T expansions (immunogenicity)” value in assay [1] is “specific CD8+ T expansions”.

With LLGETKVYV, in assay [1], the “expansion of specific CD8+ T cells” value was “expand specific CD8+ T cells” and the “specific CD8+ T expansions (immunogenicity)” value is given as “specific CD8+ T expansions”.

RLLHLESFL: in assay [1], the “expansion of specific CD8+ T cells” value is recorded as “expand specific CD8+ T cells”.
